In patent US20020137929A1, “1 - (3-heterocyclylphenyl) isothiourea, -isourea, -guanidine and -amidine herbicidal agents” (Intellectual Property Department, BASF Aktiengesellschaft, priority 1998, published 2002):

Columns and labels:
[1] = tested on: ECHCG (Barnyardgrass); test: Preemergence herbicidal evaluation; type: in vivo, Echinochloa crus-galli; settings: rated 4-5 weeks after treatment; for ECHCG rating: preemergence, 0-9 scale
How it was run: (§1)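 Rating at 4–5 wk post-spray on a 0–9 visual scale vs control. Application: aqueous acetone, ~0.0156–0.500 kg/ha, to soil surface after seeding, preemergence.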

[2] = tested on: CASOB (Sicklepod); test: Preemergence herbicidal evaluation; type: in vivo, Cassia obtusifolia; settings: rated 4-5 weeks after treatment; for CASOB rating: preemergence, 0-9 scale
How it was run: as §1

[3] = tested on: AMBEL (Ragweed, Common); test: Preemergence herbicidal evaluation; type: in vivo, Ambrosia artemisifolia; settings: rated 4-5 weeks after treatment; for AMBEL rating: preemergence, 0-9 scale
How it was run: as §1

[4] = tested on: GLXMAW (Soybean, Williams); test: Preemergence herbicidal evaluation; type: in vivo, Glycine max, (L.) Merr. cv Williams; settings: rated 4-5 weeks after treatment; for GLXMAW rating: preemergence, 0-9 scale
How it was run: as §1

[5] = tested on: IPOHE (Morningglory, Ivyleaf); test: Postemergence herbicidal evaluation; type: in vivo, Ipomoea hederacea; settings: for IPOHE herbicidal rating: postemergence
How it was run: (§2)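 Two-week seedlings sprayed postemergence at 40 psi; formulation: 1:1 acetone/water, 0.5% TWEEN 20; application ≈0.0156–0.500 kg/ha. Greenhouse grow-out, then 0–9 visual scoring at 4–5 weeks.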

[6] = tested on: GLXMAW (Soybean, Williams); test: Postemergence herbicidal evaluation; type: in vivo, Glycine max, (L.) Merr. cv Williams; settings: for GLXMAW herbicidal rating: postemergence
How it was run: as §2

[7] = tested on: SETVI (Foxtail, Green); test: Preemergence herbicidal evaluation; type: in vivo, Setaria viridis; settings: rated 4-5 weeks after treatment; for SETVI rating: preemergence, 0-9 scale
How it was run: as §1

[8] = tested on: CYPSE (Flatsedge); test: Preemergence weed control under flooded paddy conditions; type: in vivo, Cyperus serotinus; settings: rated 3-4 weeks after treatment
How it was run: (§3)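 Seeds or propagules sown in silt loam kept flooded 1.5-3 cm; compounds in 50/50 acetone/water pipetted into flood water at about 0.0313 to 0.500 kg/ha. Greenhouse; visual 0-9 rating versus untreated control 3-4 weeks after treatment.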

[9] = tested on: GALAP (Galium); test: Preemergence herbicidal evaluation; type: in vivo, Galium aparine; settings: rated 4-5 weeks after treatment; for GALAP rating: preemergence, 0-9 scale
How it was run: as §1

[10] = tested on: ABUTH (Velvetleaf); test: Preemergence herbicidal evaluation; type: in vivo, Abutilon theophrasti; settings: rated 4-5 weeks after treatment; for ABUTH rating: preemergence, 0-9 scale
How it was run: as §1

[11] = tested on: ECHORC (Watergrass (Calif.)); test: Postemergence weed control under flooded paddy conditions; type: in vivo, Echinochloa oryzoides; settings: postemergence weeds
How it was run: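 Containers holding 3–5 cm weeds and rice at 1.5–2.5 leaves are flooded to 1.5–3 cm above soil. Compound in 50/50 v/v aqueous/acetone is then added directly to the water, about 0.0313–0.500 kg/ha. Plants are kept in the greenhouse and rated 0–9 visually at 3–4 weeks.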

[12] = tested on: AMBEL (Ragweed, Common); test: Postemergence herbicidal evaluation; type: in vivo, Ambrosia artemisifolia; settings: for AMBEL herbicidal rating: postemergence
How it was run: as §2

[13] = tested on: ZEAMX (Corn, Field); test: Postemergence herbicidal evaluation; type: in vivo, Zea mays; settings: for ZEAMX herbicidal rating: postemergence
How it was run: as §2

[14] = tested on: SAGPY (Arrowhead (Pygmaea)); test: Preemergence weed control under flooded paddy conditions; type: in vivo, Sagittaria pygmaea; settings: rated 3-4 weeks after treatment
How it was run: as §3

COC(=O)CCCN1C(=O)CSC1=Nc1cc(-n2c(=O)cc(C(F)(F)F)n(C)c2=O)c(F)cc1Cl [Compound 29, Methyl 2-{{2-chloro-5-[3,6-dihydro-3-methyl-2,6-dioxo-4-(trifluoromethyl)-1(2H)-pyrimidinyl]-4-fluorophenyl}imino}-4-oxo-3-thiazolidinebutyrate]
Preemergence herbicidal rating ECHCG ([1]; rate 0.0625 kg/ha): 0.0
Preemergence herbicidal rating ECHCG ([1]; rate 0.1250 kg/ha): 0.0
Preemergence herbicidal rating ECHCG ([1]; rate 0.2500 kg/ha): 0.0
Preemergence herbicidal rating CASOB ([2]; rate 0.0625 kg/ha): 0.0
Preemergence herbicidal rating CASOB ([2]; rate 0.1250 kg/ha): 0.0
Preemergence herbicidal rating CASOB ([2]; rate 0.2500 kg/ha): 0.0
Preemergence herbicidal rating AMBEL ([3]; rate 0.0625 kg/ha): 0.0
Preemergence herbicidal rating AMBEL ([3]; rate 0.1250 kg/ha): 0.0
Preemergence herbicidal rating AMBEL ([3]; rate 0.2500 kg/ha): 0.0
Preemergence herbicidal rating GLXMAW ([4]; rate 0.0625 kg/ha): 0.0
Preemergence herbicidal rating GLXMAW ([4]; rate 0.1250 kg/ha): 0.0
Preemergence herbicidal rating GLXMAW ([4]; rate 0.2500 kg/ha): 2.0
Postemergence herbicidal rating IPOHE ([5]; Rate 0.0158 kg/ha): 3.0
Postemergence herbicidal rating IPOHE ([5]; Rate 0.0315 kg/ha): 9.0
Postemergence herbicidal rating IPOHE ([5]; Rate 0.0630 kg/ha): 9.0
Postemergence herbicidal rating GLXMAW ([6]; Rate 0.0158 kg/ha): 6.5
Postemergence herbicidal rating GLXMAW ([6]; Rate 0.0315 kg/ha): 7.5
Postemergence herbicidal rating GLXMAW ([6]; Rate 0.0630 kg/ha): 8.0
Preemergence herbicidal rating SETVI ([7]; rate 0.0625 kg/ha): 0.0
Preemergence herbicidal rating SETVI ([7]; rate 0.1250 kg/ha): 0.0
Preemergence herbicidal rating SETVI ([7]; rate 0.2500 kg/ha): 9.0
Herbicidal rating CYPSE ([8]; 0.0313 kg/ha): 0.0
Herbicidal rating CYPSE ([8]; 0.0625 kg/ha): 0.0
Herbicidal rating CYPSE ([8]; 0.1250 kg/ha): 0.0
Herbicidal rating CYPSE ([8]; 0.2500 kg/ha): 0.0
Preemergence herbicidal rating GALAP ([9]; rate 0.0625 kg/ha): 0.0
Preemergence herbicidal rating GALAP ([9]; rate 0.1250 kg/ha): 0.0
Preemergence herbicidal rating GALAP ([9]; rate 0.2500 kg/ha): 0.0
Preemergence herbicidal rating ABUTH ([10]; rate 0.0625 kg/ha): 9.0
Preemergence herbicidal rating ABUTH ([10]; rate 0.1250 kg/ha): 9.0
Preemergence herbicidal rating ABUTH ([10]; rate 0.2500 kg/ha): 9.0
Herbicidal rating ECHORC ([11]; rate 0.0313 kg/ha, 3-4 weeks after treatment): 4.0
Herbicidal rating ECHORC ([11]; rate 0.0625 kg/ha, 3-4 weeks after treatment): 7.0
Herbicidal rating ECHORC ([11]; rate 0.1250 kg/ha, 3-4 weeks after treatment): 7.0
Herbicidal rating ECHORC ([11]; rate 0.2500 kg/ha, 3-4 weeks after treatment): 7.0
Postemergence herbicidal rating AMBEL ([12]; Rate 0.0158 kg/ha): 1.0
Postemergence herbicidal rating AMBEL ([12]; Rate 0.0315 kg/ha): 4.0
Postemergence herbicidal rating AMBEL ([12]; Rate 0.0630 kg/ha): 9.0
Postemergence herbicidal rating ZEAMX ([13]; Rate 0.0158 kg/ha): 5.5
Postemergence herbicidal rating ZEAMX ([13]; Rate 0.0315 kg/ha): 5.5
Postemergence herbicidal rating ZEAMX ([13]; Rate 0.0630 kg/ha): 7.5
Herbicidal rating SAGPY ([14]; 0.0313 kg/ha): 0.0
Herbicidal rating SAGPY ([14]; 0.0625 kg/ha): 0.0
Herbicidal rating SAGPY ([14]; 0.1250 kg/ha): 0.0
Herbicidal rating SAGPY ([14]; 0.2500 kg/ha): 0.0

C#CCOC(=O)CC1SC(=Nc2cc(-n3c(=O)cc(C(F)(F)F)n(C)c3=O)c(F)cc2Cl)N(C)C1=O (stereo not shown) [Compound 90, 2-Propynyl 2-{{2-chloro-5-[3,6-dihydro-3-methyl-2,6-dioxo-4-(trifluoromethyl)-1(2H)-pyrimidinyl]-4-fluorophenyl}imino}-3-methyl-4-oxo-5-thiazolidineacetate]
ECHCG rating ([1]; 0.0313 kg/ha): 0.0
ECHCG rating ([1]; 0.0625 kg/ha): 0.0
ECHCG rating ([1]; 0.1250 kg/ha): 0.0
ECHCG rating ([1]; 0.2500 kg/ha): 3.0
CASOB rating ([2]; 0.0313 kg/ha): 3.0
CASOB rating ([2]; 0.0625 kg/ha): 9.0
CASOB rating ([2]; 0.1250 kg/ha): 9.0
CASOB rating ([2]; 0.2500 kg/ha): 9.0
AMBEL rating ([3]; 0.0313 kg/ha): 0.0
AMBEL rating ([3]; 0.0625 kg/ha): 3.0
AMBEL rating ([3]; 0.1250 kg/ha): 9.0
AMBEL rating ([3]; 0.2500 kg/ha): 9.0
GLXMAW rating ([4]; 0.0313 kg/ha): 0.0
GLXMAW rating ([4]; 0.0625 kg/ha): 2.0
GLXMAW rating ([4]; 0.1250 kg/ha): 7.0
GLXMAW rating ([4]; 0.2500 kg/ha): 9.0
IPOHE herbicidal rating ([5]; rate 0.0158 kg/ha): 9.0
IPOHE herbicidal rating ([5]; rate 0.0315 kg/ha): 9.0
IPOHE herbicidal rating ([5]; rate 0.0630 kg/ha): 9.0
GLXMAW herbicidal rating ([6]; rate 0.0158 kg/ha): 9.0
GLXMAW herbicidal rating ([6]; rate 0.0315 kg/ha): 9.0
GLXMAW herbicidal rating ([6]; rate 0.0630 kg/ha): 9.0
SETVI rating ([7]; 0.0313 kg/ha): 0.0
SETVI rating ([7]; 0.0625 kg/ha): 3.0
SETVI rating ([7]; 0.1250 kg/ha): 9.0
SETVI rating ([7]; 0.2500 kg/ha): 9.0
CYPSE herbicidal effect rating ([8]; 0.0313 kg/ha): 0.0
CYPSE herbicidal effect rating ([8]; 0.0625 kg/ha): 0.0
CYPSE herbicidal effect rating ([8]; 0.1250 kg/ha): 0.0
CYPSE herbicidal effect rating ([8]; 0.2500 kg/ha): 3.0
GALAP rating ([9]; 0.0313 kg/ha): 0.0
GALAP rating ([9]; 0.0625 kg/ha): 0.0
GALAP rating ([9]; 0.1250 kg/ha): 3.0
GALAP rating ([9]; 0.2500 kg/ha): 7.0
ABUTH rating ([10]; 0.0313 kg/ha): 9.0
ABUTH rating ([10]; 0.0625 kg/ha): 9.0
ABUTH rating ([10]; 0.1250 kg/ha): 9.0
ABUTH rating ([10]; 0.2500 kg/ha): 9.0
Herbicidal rating ECHORC ([11]; Rate 0.0313 kg/ha, rated 3 to 4 weeks after treatment): 0.0
Herbicidal rating ECHORC ([11]; Rate 0.0625 kg/ha, rated 3 to 4 weeks after treatment): 0.0
Herbicidal rating ECHORC ([11]; Rate 0.1250 kg/ha, rated 3 to 4 weeks after treatment): 0.0
Herbicidal rating ECHORC ([11]; Rate 0.2500 kg/ha, rated 3 to 4 weeks after treatment): 3.0
AMBEL herbicidal rating ([12]; rate 0.0158 kg/ha): 9.0
AMBEL herbicidal rating ([12]; rate 0.0315 kg/ha): 9.0
AMBEL herbicidal rating ([12]; rate 0.0630 kg/ha): 9.0
ZEAMX herbicidal rating ([13]; rate 0.0158 kg/ha): 8.0
ZEAMX herbicidal rating ([13]; rate 0.0315 kg/ha): 8.5
ZEAMX herbicidal rating ([13]; rate 0.0630 kg/ha): 9.0
SAGPY herbicidal effect rating ([14]; 0.0313 kg/ha): 4.0
SAGPY herbicidal effect rating ([14]; 0.0625 kg/ha): 6.0
SAGPY herbicidal effect rating ([14]; 0.1250 kg/ha): 9.0
SAGPY herbicidal effect rating ([14]; 0.2500 kg/ha): 9.0
